The subject of one assay is MATN2, matrilin 2. Particulars: cited from earlier work.
For assay [1], the system named is BMP2, bone morphogenetic protein 2. Particulars: cited from earlier work.
Assay [2] concerns SMAD3, SMAD family member 3. The conditions noted are these: cited from earlier work.
Assay [3] deals with SMAD7, SMAD family member 7. Particulars: cited from earlier work.
Assay [4] has as its target T1, LYZ, lysozyme (renal amyloidosis) (Homo sapiens, UniProt P61626).
T1 sequence (P61626 19-148): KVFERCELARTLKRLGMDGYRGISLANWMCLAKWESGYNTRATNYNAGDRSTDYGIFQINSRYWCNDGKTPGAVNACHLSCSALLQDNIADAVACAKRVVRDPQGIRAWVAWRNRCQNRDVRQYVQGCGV
The conditions noted are these: cited from earlier work.

A further assay concerns ASPN, Asporin. The conditions noted are these: cited from earlier work.
Assay [5] addresses PLAU, plasminogen activator, urokinase (Homo sapiens, UniProt P00749). Particulars: cited from earlier work.
For assay [6], the system named is TGFBR2, transforming growth factor, β receptor II (70/80 kDa). Particulars: cited from earlier work.
In assay [7] the target is T2, PLOD2, procollagen-lysine, 2-oxoglutarate 5-dioxygenase 2 (Homo sapiens, UniProt O00469).
T2 sequence (O00469 26-737): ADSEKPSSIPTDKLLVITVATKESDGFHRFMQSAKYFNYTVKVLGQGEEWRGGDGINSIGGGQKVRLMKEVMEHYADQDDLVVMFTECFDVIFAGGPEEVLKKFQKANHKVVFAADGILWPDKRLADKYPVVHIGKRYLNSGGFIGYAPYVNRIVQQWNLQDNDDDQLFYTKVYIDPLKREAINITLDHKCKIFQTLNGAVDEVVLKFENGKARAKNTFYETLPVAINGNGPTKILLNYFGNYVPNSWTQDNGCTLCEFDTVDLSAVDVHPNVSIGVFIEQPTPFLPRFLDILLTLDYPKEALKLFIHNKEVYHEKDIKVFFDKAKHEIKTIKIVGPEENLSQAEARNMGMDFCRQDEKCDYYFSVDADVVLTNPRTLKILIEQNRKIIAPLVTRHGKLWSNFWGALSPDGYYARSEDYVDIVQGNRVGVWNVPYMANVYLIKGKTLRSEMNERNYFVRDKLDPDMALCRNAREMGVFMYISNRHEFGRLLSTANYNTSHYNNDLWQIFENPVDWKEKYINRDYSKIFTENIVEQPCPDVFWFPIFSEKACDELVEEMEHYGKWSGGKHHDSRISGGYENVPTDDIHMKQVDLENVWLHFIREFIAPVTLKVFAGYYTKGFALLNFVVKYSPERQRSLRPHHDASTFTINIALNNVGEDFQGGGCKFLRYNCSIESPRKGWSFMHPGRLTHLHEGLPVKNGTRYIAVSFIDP
The conditions noted are these: cited from earlier work.

The test system of assay [8] is reconstructed pigmented skin (RPS). As to the kind of experiment: Stimulation of pigmentation of reconstructed pigmented skin by treatment with TGF-beta. The format is cell-based. Particulars: 200 pg/mL TGF-β1 on equivalent dermis for 3 days, compared with control. How it is done: FIG. 1: This figure illustrates the Reconstructed Pigmented Skin (RPS) treatment protocol using TGF-β. In the diagram, T means “treatment with TGF-β”, in a concentration of 200 pg/mL, with 4 mM of HCl and 1 mg/mL of BSA as the vehicle. The medium was MEM 3F′ with 2% FBS. The equivalent derma were treated for 3 consecutive days. On D0i, the equivalent dermis was seeded with keratinocytes and melanocytes (K+M on the graph) and kept immersed for 7 days. The culture was then emersed for 2 weeks;
The treatment protocol for reconstructed pigmented skin (RPS) with TGF-β is illustrated in FIG. 1. It was as follows:
Equivalent dermis (lattices) containing live fibroblasts in a collagen matrix were attached to the bottom of a Petri dish (D-4) and treated with TGF-β1 (T on FIG. 1) in a concentration of 200 pg/mL (vehicle: 4 mM of HCl and 1 mg/mL of BSA; medium: MEM 3F′ with 2% FBS), for 3 days (D-3; D-2 and D-1 in FIG. 1). Next, the pigmented epidermis was reconstructed on the equivalent dermis by seeding keratinocytes and melanocytes (D0). The culture was kept immersed for 1 week and emersed for 2 weeks (FIG. 1).
Samples were removed to analyse the pigmentation: • integration and morphology of melanocytes were observed after Dopa reaction on detached epidermis; • colorimetric luminance measurement provided information regarding the degree of clarity of the samples (the lower the L*, the darker the samples); • the presence of melanin was observed after Fontana Masson staining skin sections; and • the quantity of melanin present in the epidermis was measured by image analysis.

For assay [9], the system named is TIMP1, metallopeptidase inhibitor 1. The conditions noted are these: cited from earlier work.

Read-outs that look alike come from different tables or passages of the source. Where a SMILES comes first, the peptide text is derived from it.

Turning to Vitamin K2 menaquinone, the “Sense of modulation: MATN2 expression” value in the assay with MATN2, matrilin 2 is on record as “Increases”.

With `Cc1cc(SCc2sc(-c3ccc(C(F)(F)F)c(F)c3)nc2C)ccc1OCC(=O)O` [GW0742], the “Sense of modulation: BMP2 expression” value in assay [1] was “Reduces exp”; in assay [1] (listed as GW-0742), “reduces”.

Regarding `O=C1CCC[C@@H]2[C@H]3CCC[N+]4([O-])CCC[C@@H](CN12)[C@@H]34` (some centres unmarked) [Oxymatrine], the “modulation of SMAD3 ('reduces SMAD3', level not given)” value in assay [2] is “reduces”. Also, the “Sense of modulation: SMAD7 expression” value in assay [3] is listed as “Increases”.

With “PACAP38: form of pituitary adenylate cyclase-activating polypeptide listed beneath PACAP”, the “Sense of modulation: LYZ expression” value in [4] was “Increases”.

For `CC(C)(C#N)c1cc(Cn2cncn2)cc(C(C)(C)C#N)c1` [anastrozole], the “Sense of modulation: ASPN expression” value with ASPN, Asporin is given as “Increases”.

Take `N#Cc1ccc(C(c2ccc(C#N)cc2)n2cncn2)cc1` [Letrozole]: the “Sense of modulation: ASPN expression” value in the assay on ASPN, Asporin is listed as “Increases”.

Regarding `O=CC(=O)C[C@H](O)[C@H](O)CO` [3-deoxyglucosone], in [3], the “Sense of modulation: SMAD7 expression” value is listed as “Increases”.

As to `O=C([O-])Cc1ccccc1.[Na+]` [Sodium phenylacetate (NaPA), Sodium phenylacetate], the “Sense of modulation: PLAU expression” value in [5] is given as “Reduces”; in assay [5] (listed as NaPA), “reduces”.

In the case of `CC(=O)N[C@@H](CO)C(=O)N[C@@H](CC(=O)O)C(=O)N[C@@H](CCCCN)C(=O)N1CCC[C@H]1C(=O)O` [N-acetyl-seryl-aspartyl-lysyl-proline] (Ac-SDKP-OH), the “Sense of modulation: SMAD7 expression” value in [3] is reported as “Increases”.

Take `O=C(/C=C/c1ccc(O)c2c1[C@H](C(=O)O[C@H](Cc1ccc(O)c(O)c1)C(=O)O)[C@@H](c1ccc(O)c(O)c1)O2)O[C@H](Cc1ccc(O)c(O)c1)C(=O)O` [Salvianolic Acid B (Sal B), Salvianolic Acid B]: in assay [2], the “Sense of modulation: SMAD3 expression” value is “Reduces” and the “modulation of SMAD3 ('reduces SMAD3', level not given)” value is “reduces”. For the same molecule, the “Sense of modulation: TGFBR2 expression” value in assay [6] is on record as “reduces”. In addition, the “Sense of modulation: TGFBR2 expression” value in assay [6] (listed as Salvianolic acid B (SA-B)) was “Reduces”.

`N=C(N)c1ccc(N)cc1` [P-aminobenzamidine]: the entries for the “Sense of modulation: PLAU activity” value in assay [5] and in assay [5] (listed as p-aminobenzamidine) were “Reduces activity” and “reduces”, respectively.

`CC(C)=CCC[C@](C)(O[C@@H]1O[C@H](CO)[C@@H](O)[C@H](O)[C@H]1O)[C@H]1CC[C@]2(C)[C@@H]1[C@H](O)C[C@@H]1[C@@]3(C)CC[C@H](O)C(C)(C)[C@@H]3[C@@H](O[C@@H]3O[C@H](CO)[C@@H](O)[C@H](O)[C@H]3O[C@@H]3OC[C@@H](O)[C@H](O)[C@H]3O)C[C@]12C` [Notoginsenoside R1]: in assay [5], the “Sense of modulation: PLAU expression” value is “Increases”.

As for `COC(=O)[C@@H](c1ccccc1Cl)N1CCc2sccc2C1` [Thienopyridine SR 25989], in assay [5], the “Sense of modulation: PLAU expression” value is given as “Increases”.

As for `N#CCCN` [beta-aminopropionitrile (bAPN), beta-aminopropionitrile], the “Sense of modulation: PLOD2 expression” value in assay [7] was “Reduces”.

With “TGF-β1: Transforming growth factor beta 1 used to treat equivalent dermis at 200 pg/mL”, in [8], the “integration and morphology of melanocytes (Dopa reaction on detached epidermis)” value is “still present in the epidermis and retain the correct dendritic morphology”; the “melanin content (Fontana Masson stained sections, quantification by image analysis)” value is listed as “visibly increased”; the “melanin deposits in the epidermis” value is given as “higher”. Further, the “luminance of the samples (L*)” value in assay [8] (lower L* = darker) was “reduced”.

Take `CCCCC(=O)N(Cc1ccc(-c2ccccc2-c2nnn[nH]2)cc1)[C@H](C(=O)O)C(C)C` [Valsartan]: the results for the “Sense of modulation: TIMP1 expression” value in assay [9] and in assay [9] (listed as valsartan) were “Reduces” and “reduces”, respectively.

Consider `NC(=O)c1ccc(-c2nc(-c3ccc4c(c3)OCO4)c(-c3ccccn3)[nH]2)cc1` [SB-431542], for which, in assay [2], the “Sense of modulation: SMAD3 expression” value is reported as “Reduces” and the “modulation of SMAD3 ('reduces SMAD3', level not given)” value was “reduces”.

The values are drawn from patent publication US20150307940A1, “MOLECULAR SIGNATURE OF CUTANEOUS PIGMENTARY SPOTS, ASSOCIATED WITH THE EXTRACELLULAR MATRIX” (L'OREAL, priority 2011, published 2015).
